Source: US20230210108A1, “ANTIMICROBIAL COATING FOR POLYMERIC FOOD PACKAGING” (VACOPAK INDUSTRIES LTD., priority 2020, published 2023)

Assays:
[1] = system: Gram-negative bacteria E. Coli; test: Antimicrobial activity of coatings on PET surfaces against Gram-negative bacteria (CFU count); format: cell-based; details: agent 5 mg/ml embedded in chitosan or alginate matrix, coated on PET; FIG. 5A
Protocol: (§1) Air plasma was applied onto each surface for three (3) minutes prior to coating. The surfaces used in the Examples were polyethylene (PET) sheets. The coating composition was prepared by suspending polymer(s) in water together with the antimicrobial agent(s). The coating composition was then applied on the surface, forming a layer of about 25 µm, using BIUGED and BGD219 instruments in a speed of 6 mm/sec, as shown in FIG. 4. Each coating composition was prepared a few hours, or about 24 hours prior to being applied on the surface. The antimicrobial activity of several coatings was tested against Gram-negative bacteria E. Coli and Gram-positive bacteria Listeria (FIGS. 5A and 5B, respectively, n=3 per each test). Each test was repeated twice (suffix A and B; in FIGS. 5A to 5B).

[2] = system: Gram-positive bacteria Listeria; test: Antimicrobial activity of coatings on PET surfaces against Gram-positive bacteria (CFU count); format: cell-based; details: agent 5 mg/ml embedded in chitosan or alginate matrix, coated on PET; FIG. 5B
Protocol: as §1

Molecule: O=C1O[C@H]([C@@H](O)CO)C(O)=C1O [ascorbic acid, Ascorbic acid]
- reduction of bacterial count (CFU) [1]: at least one order of magnitude
- reduction of viral count, as measured in colony-forming units (CFU) [2]: at least one order of magnitude

Molecule: CCCCCCCCCCCC(=O)N[C@@H](CCCN=C(N)N)C(=O)OCC [lauryl alginate, Lauryl alginate]
- reduction of bacterial count (CFU) [1]: at least one order of magnitude
- reduction of viral count, as measured in colony-forming units (CFU) [2]: at least one order of magnitude

Molecule: Nisin
- reduction of viral count, as measured in colony-forming units (CFU) [2]: high cytotoxicity
